Measured values taken from BindingDB's records for doi:10.1016/j.ejmech.2016.03.038 (Glaxosmithkline, 2016).

Experiments:
[1] = Inhibition of pseudotype HIV1 integrase strand transfer activity assessed as reduction in viral replication in HIV1 infected human CIP4 cells after 2 days by luciferase reporter gene assay
[2] = Inhibition of pseudotype HIV1 integrase strand transfer activity assessed as reduction in viral replication in HIV1 infected human CIP4 cells after 2 days in presence of 40% human serum albumin by luciferase reporter gene assay

Compound	IC50 [1] [µM]	IC50 [2] [µM]
Cn1c(=O)c(C(=O)NCCO)c(O)c2ncc(Cc3ccc(F)cc3)cc21 [GSK364735]	0.003	
O=C1c2c(cc3cc(Cc4cccc(Cl)c4F)cnc3c2O)CN2CCCN12	0.016	0.136
NC(=O)c1c2c(c(O)c3ncc(Cc4cccc(Cl)c4F)cc13)C(=O)N1CCCC[C@H]21	0.0007	0.001
NC(=O)c1c2c(c(O)c3ncc(Cc4cccc(Cl)c4F)cc13)C(=O)N1CCC[C@@H]1C2	0.008	0.03
N#Cc1c2c(c(O)c3ncc(Cc4cccc(Cl)c4F)cc13)C(=O)N1CCCC[C@H]21	0.015	0.457
N#Cc1c2c(c(O)c3ncc(Cc4cccc(Cl)c4F)cc13)C(=O)N1CCC[C@@H]21	0.01	3.32
N#Cc1c2c(c(O)c3ncc(Cc4cccc(Cl)c4F)cc13)C(=O)N1CCCC[C@@H]21	0.018	1.28
N#Cc1c2c(c(O)c3ncc(Cc4cccc(Cl)c4F)cc13)C(=O)N1CCCN1C2	0.0022	0.415

Results, then the compound that gave them:

IC50 [1] [µM]	IC50 [2] [µM]	Compound
0.007	4.54	N#Cc1c2c(c(O)c3ncc(Cc4cccc(Cl)c4F)cc13)C(=O)N1CCC[C@@H]1C2
0.005	0.294	N#Cc1c2c(c(O)c3ncc(Cc4cccc(Cl)c4F)cc13)C(=O)N1CCC[C@H]21
0.003	0.015	NC(=O)c1c2c(c(O)c3ncc(Cc4cccc(Cl)c4F)cc13)C(=O)N1CCC[C@H]1C2
0.014	0.066	N#Cc1c2c(c(O)c3ncc(Cc4cccc(Cl)c4F)cc13)C(=O)N1CCC[C@H]1C2
0.002		O=C(NCc1ccc(F)cc1)c1cn2c(c(O)c1=O)C(=O)N1CCCO[C@H]1C2
0.0006	0.002	NC(=O)c1c2c(c(O)c3ncc(Cc4cccc(Cl)c4F)cc13)C(=O)N1CCCC[C@@H]21
